Measured values: ChEMBL document CHEMBL3286379, “Design and synthesis of pyrimidine molecules endowed with thiazolidin-4-one as new anticancer agents” (Eur J Med Chem, 2014)

How the values were obtained:
SK-MEL-5 = assay: Growth inhibition of human SK-MEL-5 cells assessed as cell growth at 10 uM after 48 hrs by sulforhodamine B assay relative to control; assay type: functional; details: SK-MEL-5, 48 h, read-out: Activity
[1] = Growth inhibition of human UACC62 cells assessed as cell growth at 10 uM after 48 hrs by sulforhodamine B assay relative to control; assay type: functional; details: UACC-62, 48 h, read-out: Activity
SW-620 [2] = assay: Growth inhibition of human SW620 cells assessed as cell growth at 10 uM after 48 hrs by sulforhodamine B assay relative to control; assay type: functional; details: SW-620, 48 h, read-out: Activity
786-0 [3] = assay: Growth inhibition of human 786-0 cells after 48 hrs by sulforhodamine B assay; assay type: functional; details: 786-0, 48 h
SW-620 [4] = assay: Growth inhibition of human SW620 cells after 48 hrs by sulforhodamine B assay; assay type: functional; details: SW-620, 48 h
SK-MEL-28 = assay: Growth inhibition of human SK-MEL-28 cells assessed as cell growth at 10 uM after 48 hrs by sulforhodamine B assay relative to control; assay type: functional; details: SK-MEL-28, 48 h, read-out: Activity
[5] = Growth inhibition of human MOLT4 cells assessed as cell growth at 10 uM after 48 hrs by sulforhodamine B assay relative to control; assay type: functional; details: MOLT-4, 48 h, read-out: Activity
[6] = Growth inhibition of human OVCAR4 cells assessed as cell growth at 10 uM after 48 hrs by sulforhodamine B assay relative to control; assay type: functional; details: OVCAR-4, 48 h, read-out: Activity
[7] = Growth inhibition of human OVCAR5 cells assessed as cell growth at 10 uM after 48 hrs by sulforhodamine B assay relative to control; assay type: functional; details: OVCAR-5, 48 h, read-out: Activity
[8] = Growth inhibition of human OVCAR3 cells after 48 hrs by sulforhodamine B assay; assay type: functional; details: OVCAR-3, 48 h
[9] = Growth inhibition of human Hs 578T cells assessed as cell growth at 10 uM after 48 hrs by sulforhodamine B assay relative to control; assay type: functional; details: read-out: Activity
MDA-MB-435 [10] = assay: Growth inhibition of human MDA-MB-435 cells after 48 hrs by sulforhodamine B assay; assay type: functional; details: MDA-MB-435, 48 h
[11] = Growth inhibition of human LOXIMVI cells assessed as cell growth at 10 uM after 48 hrs by sulforhodamine B assay relative to control; assay type: functional; details: LOX IMVI, read-out: Activity
MDA-MB-468 = assay: Growth inhibition of human MDA-MB-468 cells assessed as cell growth at 10 uM after 48 hrs by sulforhodamine B assay relative to control; assay type: functional; details: MDA-MB-468, 48 h, read-out: Activity
SNB-75 = assay: Growth inhibition of human SNB75 cells assessed as cell growth at 10 uM after 48 hrs by sulforhodamine B assay relative to control; assay type: functional; details: SNB-75, 48 h, read-out: Activity
NCI-H522 = assay: Growth inhibition of human NCI-H522 cells assessed as cell growth at 10 uM after 48 hrs by sulforhodamine B assay relative to control; assay type: functional; details: NCI-H522, 48 h, read-out: Activity
CCRF-CEM = assay: Growth inhibition of human CCRF-CEM cells assessed as cell growth at 10 uM after 48 hrs by sulforhodamine B assay relative to control; assay type: functional; details: read-out: Activity
SK-MEL-2 = assay: Growth inhibition of human SK-MEL-2 cells assessed as cell growth at 10 uM after 48 hrs by sulforhodamine B assay relative to control; assay type: functional; details: SK-MEL-2, 48 h, read-out: Activity
[12] = Growth inhibition of human UO31 cells assessed as cell growth at 10 uM after 48 hrs by sulforhodamine B assay relative to control; assay type: functional; details: UO-31, 48 h, read-out: Activity
MCF7 = assay: Growth inhibition of human MCF7 cells assessed as cell growth at 10 uM after 48 hrs by sulforhodamine B assay relative to control; assay type: functional; details: MCF7, 48 h, read-out: Activity
U-251 = assay: Growth inhibition of human U251 cells assessed as cell growth at 10 uM after 48 hrs by sulforhodamine B assay relative to control; assay type: functional; details: U-251, 48 h, read-out: Activity
786-0 [13] = assay: Growth inhibition of human 786-0 cells assessed as cell growth at 10 uM after 48 hrs by sulforhodamine B assay relative to control; assay type: functional; details: 786-0, 48 h, read-out: Activity
Malme-3M = assay: Growth inhibition of human MALME-3M cells assessed as cell growth at 10 uM after 48 hrs by sulforhodamine B assay relative to control; assay type: functional; details: read-out: Activity
MDA-MB-435 [14] = assay: Growth inhibition of human MDA-MB-435 cells assessed as cell growth at 10 uM after 48 hrs by sulforhodamine B assay relative to control; assay type: functional; details: MDA-MB-435, 48 h, read-out: Activity
[15] = Growth inhibition of human HOP92 cells assessed as cell growth at 10 uM after 48 hrs by sulforhodamine B assay relative to control; assay type: functional; details: HOP-92, 48 h, read-out: Activity
[16] = Growth inhibition of human BT549 cells assessed as cell growth at 10 uM after 48 hrs by sulforhodamine B assay relative to control; assay type: functional; details: BT-549, 48 h, read-out: Activity
IGROV-1 = assay: Growth inhibition of human IGROV1 cells after 48 hrs by sulforhodamine B assay; assay type: functional; details: IGROV-1, 48 h
SR = assay: Growth inhibition of human SR cells assessed as cell growth at 10 uM after 48 hrs by sulforhodamine B assay relative to control; assay type: functional; details: read-out: Activity
Rattus norvegicus = assay: Hepatotoxicity in rat assessed as SGPT level at 0.12 mg/kg, po after 12 days (reference value: 31.17 +/- 0.39 U/mL); assay type: toxicity, organism-based; parameters: dose 0.12 mg/kg, route oral; details: in vivo, 288 h
HL-60(TB) = assay: Growth inhibition of human HL-60(TB) cells assessed as cell growth at 10 uM after 48 hrs by sulforhodamine B assay relative to control; assay type: functional; details: HL-60, 48 h, read-out: Activity
[17] = read-out: LC50 (the source's name)
[18] = read-out: pLC50 (the source's name) (converted)

With `Nc1nc(-c2ccccc2Cl)cc(-c2ccc(Cl)cc2Cl)n1` the growth at 10 µM (SK-MEL-5) was 75.2%, the growth at 10 µM [1] was 63.1% and the growth at 10 µM (SW-620 [2]) was 39%. For the same compound, the GI50 (786-0 [3]; read-out: GI50) was 20.2 µM, the CC50 (786-0 [3]; [17]) was greater than 100 µM and the TGI (786-0 [3]; read-out: TGI) was greater than 100 µM. For the same compound, the GI50 (786-0 [3]; read-out: pGI50 (converted)) was 20.4 µM, the CC50 (786-0 [3]; [18]) was greater than 100 µM and the TGI (786-0 [3]; read-out: pTGI) was greater than 100 µM. It also gave a GI50 (SW-620 [4]; read-out: GI50) of 3.41 µM, a CC50 (SW-620 [4]; [17]) greater than 100 µM and a TGI (SW-620 [4]; read-out: TGI) greater than 100 µM. The GI50 (SW-620 [4]; read-out: pGI50 (converted)) was 3.39 µM, the CC50 (SW-620 [4]; [18]) was greater than 100 µM and the TGI (SW-620 [4]; read-out: pTGI) was greater than 100 µM. The growth at 10 µM (SK-MEL-28) was 88%, the growth at 10 µM [5] was 52.6% and the growth at 10 µM [6] was 79.6%. The growth at 10 µM [7] was 96.2%, the GI50 ([8]; read-out: GI50) was 4.05 µM and the CC50 [8, 17] was greater than 100 µM. For the same compound, the TGI ([8]; read-out: TGI) was 20.7 µM, the GI50 ([8]; read-out: pGI50 (converted)) was 4.07 µM and the CC50 [8, 18] was greater than 100 µM. The TGI ([8]; read-out: pTGI (converted)) was 20.9 µM, the growth at 10 µM [9] was 61.9% and the GI50 (MDA-MB-435 [10]; read-out: GI50) was 1.97 µM. It also gave a CC50 (MDA-MB-435 [10]; [17]) greater than 100 µM, a TGI (MDA-MB-435 [10]; read-out: TGI) of 4.93 µM and a GI50 (MDA-MB-435 [10]; read-out: pGI50 (converted)) of 1.95 µM. It also gave a CC50 (MDA-MB-435 [10]; [18]) greater than 100 µM, a TGI (MDA-MB-435 [10]; read-out: pTGI (converted)) of 4.9 µM and a growth at 10 µM [11] of 55.4%. It also gave a growth at 10 µM (MDA-MB-468) of 18.6%, a growth at 10 µM (SNB-75) of 30.5% and a growth at 10 µM (NCI-H522) of 68.5%. The growth at 10 µM (CCRF-CEM) was 57.5%, the growth at 10 µM (SK-MEL-2) was 96.2% and the growth at 10 µM [12] was 62.5%. For the same compound, the growth at 10 µM (MCF7) was 45.7%, the growth at 10 µM (U-251) was 65% and the growth at 10 µM (786-0 [13]) was 90.2%. For the same compound, the growth at 10 µM (Malme-3M) was 86.6%, the growth at 10 µM (MDA-MB-435 [14]) was 0.07% and the growth at 10 µM [15] was 76.2%. It also gave a growth at 10 µM [16] of 75.3%, a GI50 (IGROV-1; read-out: GI50) of 12.3 µM and a CC50 (IGROV-1; [17]) greater than 100 µM. It also gave a TGI (IGROV-1; read-out: TGI) greater than 100 µM, a GI50 (IGROV-1; read-out: pGI50 (converted)) of 12.3 µM and a CC50 (IGROV-1; [18]) greater than 100 µM. For the same compound, the TGI (IGROV-1; read-out: pTGI) was greater than 100 µM, the growth at 10 µM (SR) was 25.4% and the Activity (Rattus norvegicus) was 29.11 U/ml. It also gave a growth at 10 µM (HL-60(TB)) of 51.4%.
With `O=C1CS/C(=N\c2nc(-c3ccccc3Cl)cc(-c3ccc(Cl)cc3Cl)n2)N1` the growth at 10 µM (SK-MEL-5) was 103%, the growth at 10 µM [1] was 91.2% and the growth at 10 µM (SW-620 [2]) was 92.9%. It also gave a growth at 10 µM (SK-MEL-28) of 102%, a growth at 10 µM [5] of 92% and a growth at 10 µM [6] of 96.1%. The growth at 10 µM [7] was 108%, the growth at 10 µM [9] was 97.7% and the growth at 10 µM [11] was 90.4%. It also gave a growth at 10 µM (MDA-MB-468) of 93.5%, a growth at 10 µM (SNB-75) of 76.6% and a growth at 10 µM (NCI-H522) of 88.6%. It also gave a growth at 10 µM (CCRF-CEM) of 85.9%, a growth at 10 µM (SK-MEL-2) of 97.9% and a growth at 10 µM [12] of 58%. The growth at 10 µM (MCF7) was 87.2%, the growth at 10 µM (U-251) was 105% and the growth at 10 µM (786-0 [13]) was 99.7%. It also gave a growth at 10 µM (Malme-3M) of 87.3%, a growth at 10 µM (MDA-MB-435 [14]) of 78.5% and a growth at 10 µM [15] of 84.6%. The growth at 10 µM [16] was 98.4%, the growth at 10 µM (SR) was 75.1% and the growth at 10 µM (HL-60(TB)) was 96.1%.
With `O=C1N/C(=N/c2nc(-c3ccccc3Cl)cc(-c3ccc(Cl)cc3Cl)n2)S/C1=C/c1ccc(Cl)cc1` the growth at 10 µM (SK-MEL-5) was 83.6%, the growth at 10 µM [1] was 70.2% and the growth at 10 µM (SW-620 [2]) was 76.6%. For the same compound, the growth at 10 µM (SK-MEL-28) was 104%, the growth at 10 µM [5] was 94.2% and the growth at 10 µM [6] was 81.9%. It also gave a growth at 10 µM [7] of 102%, a growth at 10 µM [9] of 91.9% and a growth at 10 µM [11] of 74.1%. The growth at 10 µM (MDA-MB-468) was 34.2%, the growth at 10 µM (SNB-75) was 97.5% and the growth at 10 µM (NCI-H522) was 82.3%. For the same compound, the growth at 10 µM (CCRF-CEM) was 75.5%, the growth at 10 µM (SK-MEL-2) was 88.9% and the growth at 10 µM [12] was 55.2%. The growth at 10 µM (MCF7) was 50.4%, the growth at 10 µM (U-251) was 89.4% and the growth at 10 µM (786-0 [13]) was 100%. The growth at 10 µM (Malme-3M) was 91.5%, the growth at 10 µM (MDA-MB-435 [14]) was 32.1% and the growth at 10 µM [15] was 55.1%. It also gave a growth at 10 µM [16] of 92.2%, a growth at 10 µM (SR) of 32.4% and a growth at 10 µM (HL-60(TB)) of 87.1%.
